Test results reported in patent US8524699B2, “Substituted dihydropyrazolones and use thereof as HIF-prolyl-4-hydroxylase inhibitors” (Bayer Intellectual Property GmbH, priority 2006, dated 2013).
Counter-ions that a name gives are not always drawn.

Each compound was assayed against HIF prolyl hydroxylase (assay: Inhibition of the activity of HIF prolyl hydroxylase (VBC complex binding to hydroxylated peptide substrate)). Details: cell lysate containing prolyl hydroxylase.
Type: biochemical
Procedure: Hydroxylated HIF bonds specifically to the von Hippel-Lindau protein-elongin B-elongin C complex (VBC complex). This interaction occurs only if HIF is hydroxylated on a conserved prolyl radical. It is the basis for the biochemical determination of HIF prolyl hydroxylase activity. The test is carried out as described [Oehme F., Jonghaus W., Narouz-Ott L., Huetter J., Flamme I., Anal. Biochem. 330 (1), 74-80 (2004)]:
A clear 96-well microtiter plate coated with NeutrAvidin HBC (Pierce) is incubated with blocker casein for 30 minutes. The plate is then washed three times with 200 μl each time of wash buffer (50 mM Tris, pH 7.5, 100 mM NaCl, 10% (v/v) blocker casein, 0.05% (v/v) Tween 20) per well. The peptide biotin-DLDLEMLAPYIPMDDDFQL (Eurogentec, 4102 Seraing, Belgium) is added in a concentration of 400 nM in 100 μl wash buffer. This peptide serves as a substrate for the prolyl hydroxylation and is bonded to the microtiter plate. After incubation for 60 minutes, the plate is washed three times with wash buffer, incubated with 1 mM biotin in blocker casein for 30 minutes and then washed again three times with wash buffer.
To carry out the prolyl hydroxylase reaction, the peptide substrate bonded to the plate is incubated with a cell lysate containing prolyl hydroxylase for 1 to 60 minutes. The reaction takes place in 100 μl reaction buffer (20 mM Tris, pH 7.5, 5 mM KCl, 1.5 mM MgCl2, 1 μM-1 mM 2-oxoglutarate, 10 μM FeSO4, 2 mM ascorbate) at room temperature. The reaction mixture moreover contains various concentrations of the prolyl hydroxylase inhibitor to be tested. The test substance is preferably, but not exclusively, employed at concentrations of between 1 nM and 100 μM. The reaction is stopped by washing the plate three times with wash buffer.
For quantitative determination of the prolyl hydroxylation, a fusion protein which contains both thioredoxin from E. coli and the VBC complex in 80 μl bonding buffer (50 mM Tris, pH 7.5, 120 mM NaCl) is added. After 15 minutes, 10 μl of a solution of polyclonal anti-thioredoxin antibodies from rabbit in bonding buffer are added. After a further 30 minutes, 10 μl of a solution of anti-rabbit immunoglobulin coupled to horseradish peroxidase in bonding buffer are added. After incubation at room temperature for 30 minutes, the plate is washed three times with wash buffer in order to remove non-bonded VBC complex and antibodies. To determine the amount of bonded VBC complex, the plate is incubated with TMB for 15 minutes. The color reaction is ended by addition of 100 μl 1 M sulfuric acid. The amount of bonded VBC complex is determined by measurement of the optical density at 450 nm. It is proportional to the amount of hydroxylated proline in the peptide substrate.
Alternatively, a VBC complex coupled to europium (Perkin Elmer) can be used for detection of the prolyl hydroxylation. In this case, the amount of bonded VBC complex is determined by the fluorescence with respect to time. The use of VBC complex labeled with [^35S]-methionine is moreover possible. For this, the radioactively labeled VBC complex can be prepared by in vitro transcription-translation in reticulocyte lysate.
Representative IC50 values for the embodiment examples are reproduced in the following Table 1: […]

| IC50 [µM] | SMILES |
| --- | --- |
| 0.48 | O=c1c(-c2ccc(Cl)nc2)c[nH]n1-c1cc(N2CCOCC2)ncn1 [Example 16] |
| 2.7 | O=c1c(-c2cccnc2)c[nH]n1-c1ccc(-c2ccccc2)nn1 [Example 22, 2-(6-Phenylpyridazin-3-yl)-4-pyridin-3-yl-1,2-dihydro-3H-pyrazol-3-one hydrochloride] |
| 0.7 | Cc1cc(C)n(-c2cc(-n3[nH]cc(-c4cccnc4)c3=O)ncn2)n1 [Example 3] |
| 0.93 | O=c1c(-c2cccnc2)c[nH]n1-c1cnccn1 [Example 46, 2-Pyrazin-2-yl-4-pyridin-3-yl-1,2-dihydro-3H-pyrazol-3-one hydrochloride] |
| 1.7 | CCN(CC)CCCCCCNc1cc(-n2[nH]cc(-c3cccnc3)c2=O)ncn1 [Example 55, 2-(6-{[6-(Diethylamino)hexyl]amino}pyrimidin-4-yl)-4-pyridin-3-yl-1,2-dihydro-3H-pyrazol-3-one] |
| 0.88 | O=c1c(-c2cccnc2)c[nH]n1-c1nnc(-c2ccc(Cl)cc2)s1 [Example 7] |
| 0.89 | COCCN1CCN(c2cc(-n3[nH]cc(-c4cccnc4)c3=O)ncn2)CC1 [Example 28, 2-{6-[4-(2-Methoxyethyl)piperazin-1-yl]pyrimidin-4-yl}-4-pyridin-3-yl-1,2-dihydro-3H-pyrazol-3-one dihydrochloride] |
| 1.12 | N#Cc1cncc(-c2c[nH]n(-c3cc(N4CCCCC4)ncn3)c2=O)c1 [Example 44, 5-[3-oxo-2-(6-piperidin-1-ylpyrimidin-4-yl)-2,3-dihydro-1H-pyrazol-4-yl]pyridine-3-carbonitrile hydrochloride] |
| 4 | CN(C)CCOc1cc(-n2[nH]cc(-c3cccnc3)c2=O)ncn1 [Example 26, 2-{6-[2-(Dimethylamino)ethoxy]pyrimidin-4-yl}-4-pyridin-3-yl-1,2-dihydro-3H-pyrazol-3-one hydrochloride] |
| 2.8 | O=c1c(-c2cccnc2)c[nH]n1-c1nc2ccccc2s1 [Example 6] |

| SMILES | IC50 [µM] |
| --- | --- |
| O=c1c(-c2cccnc2)c[nH]n1-c1cc(N2CCOCC2)ncn1 [Example 18, 2-(6-Morpholin-4-yl-pyrimidin-4-yl)-4-pyridin-3-yl-1,2-dihydro-3H-pyrazol-3-one hydrochloride] | 0.18 |
